Active and inactive are the calls of the source. The calls are words filed in the database; no cut-off is given here.
What was measured:
[1] = target: T1, Dihydrofolate reductase (Homo sapiens) (UniProt P00374); assay: Inhibition of DHFR (unknown origin) using dihydro folic acid as substrate at 0.5 mM preincubated with compound for 5 mins followed by substrate addition and measured after 30 mins in presence of NADPH by absorbance based assay relative to control; settings: time 35.0 min
T1 sequence (whole entry): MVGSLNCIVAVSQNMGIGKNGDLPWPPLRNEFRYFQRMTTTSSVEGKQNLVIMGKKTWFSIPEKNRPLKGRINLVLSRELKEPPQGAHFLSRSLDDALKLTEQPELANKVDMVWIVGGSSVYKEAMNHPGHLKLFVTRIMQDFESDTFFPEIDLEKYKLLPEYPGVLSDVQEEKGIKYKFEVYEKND

[2] = target: T2, Dihydrofolate reductase (Homo sapiens, UniProt P00374); assay: (§1) Inhibition of DHFR (unknown origin) using dihydro folic acid as substrate preincubated with compound for 5 mins followed by substrate addition and measured after 30 mins in presence of NADPH by absorbance based assay
T2 sequence (P00374 whole entry): T1 sequence (whole entry)

[3] = target: T1, Dihydrofolate reductase (Homo sapiens); assay: as §1; settings: time 35.0 min

SMILES	inhibition [1]	IC50 [2]	inhibition [3]
CC1(C)OC(=O)C(Cc2cn(-c3ccc(C(F)(F)F)cc3)nn2)(Cc2c[nH]c3ccccc23)C(=O)O1	91.3%	10.1 µM	
CC1(C)OC(=O)C(Cc2cn(-c3ccc(F)cc3)nn2)(Cc2cn(Cc3ccc(C#N)cc3)c3ccccc23)C(=O)O1	91.7%	6.15 µM	
Cc1ccccc1-n1cc(CC2(Cc3c[nH]c4ccccc34)C(=O)OC(C)(C)OC2=O)nn1	90.7%	19.6 µM	
COc1ccc(OC(=O)C(Cc2cn(-c3ccc(F)cc3)nn2)Cc2cn(Cc3ccc(C#N)cc3)c3ccccc23)cc1 (configuration not stated)	90.9%	16.1 µM	
CC1(C)OC(=O)C(Cc2cn(-c3ccc(C(F)(F)F)cc3)nn2)(Cc2cn(CCC#N)c3ccccc23)C(=O)O1	90.5%	13.9 µM	
CC1(C)OC(=O)C(Cc2cn(CCC#N)c3ccccc23)C(=O)O1	38.9%		inactive
CC1(C)OC(=O)C(Cc2c[nH]c3ccccc23)C(=O)O1	36.2%		inactive
C#CCC1(Cc2c[nH]c3ccccc23)C(=O)OC(C)(C)OC1=O	40.2%		inactive
Cc1ccccc1-n1cc(CC2(Cc3cn(Cc4ccc(C#N)cc4)c4ccccc34)C(=O)OC(C)(C)OC2=O)nn1	90.6%	14.5 µM	
COc1ccc(-n2cc(CC3(Cc4cn(CCC#N)c5ccccc45)C(=O)OC(C)(C)OC3=O)nn2)cc1	91.8%	5.83 µM	
COc1ccc(-n2cc(CC3(Cc4cn(Cc5ccc(C#N)cc5)c5ccccc45)C(=O)OC(C)(C)OC3=O)nn2)cc1	92.3%	3.48 µM	
CC1(C)OC(=O)C(Cc2cn(-c3ccccc3)nn2)(Cc2c[nH]c3ccccc23)C(=O)O1	89.7%	23.8 µM	
CC1(C)OC(=O)C(=Cc2cn(CCC#N)c3ccccc23)C(=O)O1	35.3%		inactive
CC1(C)OC(=O)C(Cc2cn(-c3ccc(F)cc3)nn2)(Cc2c[nH]c3ccccc23)C(=O)O1	91.7%	5.1 µM	
COc1ccc(-n2cc(CC3(Cc4c[nH]c5ccccc45)C(=O)OC(C)(C)OC3=O)nn2)cc1	90.9%	4.36 µM	
CC1(C)OC(=O)C(Cc2cn(-c3ccc(F)cc3)nn2)(Cc2cn(CCC#N)c3ccccc23)C(=O)O1	92.5%	4.78 µM	

SMILES	inhibition [1]	IC50 [2]	inhibition [3]
CC1(C)OC(=O)C(Cc2cn(-c3ccc(Br)cc3)nn2)(Cc2c[nH]c3ccccc23)C(=O)O1	91.6%	9.57 µM	
C#CCC1(Cc2cn(Cc3ccc(C#N)cc3)c3ccccc23)C(=O)OC(C)(C)OC1=O	41.4%		inactive
CC1(C)OC(=O)C(=Cc2cn(Cc3ccc(C#N)cc3)c3ccccc23)C(=O)O1	30.2%		inactive
C#CCC1(Cc2cn(CCC#N)c3ccccc23)C(=O)OC(C)(C)OC1=O	46.2%		inactive
CC1(C)OC(=O)C(Cc2cn(-c3ccc(Br)cc3)nn2)(Cc2cn(CCC#N)c3ccccc23)C(=O)O1	91.6%	11.3 µM	
CC1(C)OC(=O)C(Cc2cn(-c3ccc(C(F)(F)F)cc3)nn2)(Cc2cn(Cc3ccc(C#N)cc3)c3ccccc23)C(=O)O1	91.8%	8.71 µM	
CC1(C)OC(=O)C(Cc2cn(-c3ccccc3)nn2)(Cc2cn(Cc3ccc(C#N)cc3)c3ccccc23)C(=O)O1	86.2%	30.4 µM	
CC1(C)OC(=O)C(Cc2cn(-c3ccc(Br)cc3)nn2)(Cc2cn(Cc3ccc(C#N)cc3)c3ccccc23)C(=O)O1	91.5%	9.1 µM	
COc1ccc(OC(=O)C(Cc2cn(-c3ccc(F)cc3)nn2)Cc2cn(CCC#N)c3ccccc23)cc1 (configuration not stated)	91.3%	12.8 µM	
COc1ccc(OC(=O)C(Cc2cn(-c3ccc(Br)cc3)nn2)Cc2cn(Cc3ccc(C#N)cc3)c3ccccc23)cc1 (configuration not stated)	86.7%	25.3 µM	
Cc1ccccc1-n1cc(CC2(Cc3cn(CCC#N)c4ccccc34)C(=O)OC(C)(C)OC2=O)nn1	89.4%	18.3 µM	
CC1(C)OC(=O)C(Cc2cn(Cc3ccc(C#N)cc3)c3ccccc23)C(=O)O1	25.5%		inactive
N#Cc1ccc(Cn2cc(C=O)c3ccccc32)cc1	25.2%		inactive
CC1(C)OC(=O)C(Cc2cn(-c3ccccc3)nn2)(Cc2cn(CCC#N)c3ccccc23)C(=O)O1	87.3%	27.6 µM	
N#CCCn1cc(C=O)c2ccccc21	24.8%		inactive
